Target: T1, Gtf180-ΔN (Limosilactobacillus reuteri, UniProt Q5SBN3, Q1140E)
T1 construct: N-terminally truncated fragment (first 741 residues removed), 117 kDa; start 742 derived from the printed truncation
Test: HPLC time course of transglucosylation
Assay type: biochemical
Details: acceptor substrate; 84 mM RebA, 282 mM sucrose donor, 5 U/mL enzyme, 1 mM CaCl2, pH 4.7, 37 °C

T1 sequence (Q5SBN3 entry or part of it Q1140E): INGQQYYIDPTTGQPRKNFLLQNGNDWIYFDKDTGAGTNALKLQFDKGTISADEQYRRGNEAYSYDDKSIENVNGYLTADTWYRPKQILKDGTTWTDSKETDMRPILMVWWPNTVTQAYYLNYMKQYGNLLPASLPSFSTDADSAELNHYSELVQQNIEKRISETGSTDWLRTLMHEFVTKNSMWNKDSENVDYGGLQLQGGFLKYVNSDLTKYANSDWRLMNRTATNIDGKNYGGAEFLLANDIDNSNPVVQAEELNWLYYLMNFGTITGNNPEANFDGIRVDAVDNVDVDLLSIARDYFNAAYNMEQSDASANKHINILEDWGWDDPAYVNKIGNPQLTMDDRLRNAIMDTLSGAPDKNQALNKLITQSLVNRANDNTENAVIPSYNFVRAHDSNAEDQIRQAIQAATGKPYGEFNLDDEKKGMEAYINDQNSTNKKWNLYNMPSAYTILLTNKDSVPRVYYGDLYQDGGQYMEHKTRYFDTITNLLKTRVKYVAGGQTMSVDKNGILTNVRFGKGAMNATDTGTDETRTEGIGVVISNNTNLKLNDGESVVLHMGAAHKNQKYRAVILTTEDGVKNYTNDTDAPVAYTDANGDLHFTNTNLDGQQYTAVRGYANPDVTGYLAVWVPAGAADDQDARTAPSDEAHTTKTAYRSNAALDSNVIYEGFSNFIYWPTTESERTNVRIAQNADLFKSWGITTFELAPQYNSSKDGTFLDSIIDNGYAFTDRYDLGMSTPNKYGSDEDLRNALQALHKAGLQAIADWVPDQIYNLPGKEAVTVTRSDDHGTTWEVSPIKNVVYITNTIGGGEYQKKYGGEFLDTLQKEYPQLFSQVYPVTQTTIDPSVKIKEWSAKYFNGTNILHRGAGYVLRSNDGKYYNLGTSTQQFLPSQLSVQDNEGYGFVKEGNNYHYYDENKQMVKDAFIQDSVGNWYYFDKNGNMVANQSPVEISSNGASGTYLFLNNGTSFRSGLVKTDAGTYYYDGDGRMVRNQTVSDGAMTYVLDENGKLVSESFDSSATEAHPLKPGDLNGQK

Which “HPLC time course of transglucosylation” value does the source give for C=C1C[C@@]23CC[C@H]4[C@@](C)(CCC[C@@]4(C)C(=O)O[C@@H]4O[C@H](CO)[C@@H](O)[C@H](O)[C@H]4O)[C@@H]2CC[C@]1(O[C@@H]1O[C@H](CO)[C@@H](O)[C@H](O[C@@H]2O[C@H](CO)[C@@H](O)[C@H](O)[C@H]2O)[C@H]1O[C@@H]1O[C@H](CO)[C@@H](O)[C@H](O)[C@H]1O)C3 [rebaudioside A] here?
Its value is “the Q1140E-mutant not only converted more RebA into RebA-G than wild-type Gtf180-ΔN”.

Reference: paper PMC5784128, “Glucansucrase (mutant) enzymes from Lactobacillus reuteri 180 efficiently transglucosylate Stevia component rebaudioside A, resulting in a superior taste” (Scientific Reports, 2018)
